Counter-ions that a name gives are not always drawn.
What was measured:
[1] = tested on: KB-VIN (multidug-resistant KB subline); assay: Cell growth inhibition assay (SRB), Example 2, KB-VIN; type: cell-based, human; conditions: Table 6, 72-h continuous treatment
Text: (§1) Drug-Resistance Study. Twelve active compounds [including four hydrochloride salts (18b, 22b, 24b, 32b) of corresponding active free bases (18a, 22a, 24a, 32a)] were further screened against an extended panel of human tumor cell lines including DU-145 (prostate), ZR-751 (breast), KB (nasopharyngeal), and KB-VIN (multidug-resistant KB subline) in order to explore their antitumor spectra and drug-resistance profiles. Four compounds were used as reference compounds. Antofine is a positional isomer of tylophorine isolated from Asclepiadaceae by Dr. T. S. Wu in Taiwan (Wu, P. L. et al., Heterocycles 2002; 57:2401). […] Doxorubicin (Adriamycin), vincristine, and etoposide (VP-16, Vepesid®) are widely used anticancer agents for treating a range of solid tumors.
(§2) Cell Growth Inhibition Assay. The sulforhodamine B assay was used according to the procedures developed and validated at NCI. The in vitro anticancer activities are expressed as ED50 values, which is the test compound concentration (μM) that reduced the cell number by 50% after 72-h of continuous treatment. The values were interpolated from dose-response data. Each test was performed in triplicate with variation less than 5%. The ED50 values determined in each of independent tests varied less than 10%. Compound stock solutions were prepared in DMSO with the final solvent concentration ≦1% DMSO (v/v), a concentration without effect on cell replication. The cells were cultured at 37° C. in RPMI-1640 supplemented with 25 mM N-2-hydroxyethylpiperazine-N′-2-ethanesulfonic acid (HEPES), […], 10% (v/v) fetal bovine serum, and 100 μg/mL kanamycin in a humidified atmosphere containing 5% CO2.

[2] = tested on: KB (nasopharyngeal); assay: Cell growth inhibition assay (SRB), Example 2, KB; type: cell-based, human; conditions: Table 6, 72-h continuous treatment
Text: as §1, §2

[3] = tested on: DU-145 (prostate); assay: Cell growth inhibition assay (SRB), Example 2, DU-145; type: cell-based, human; conditions: Table 6, 72-h continuous treatment
Text: as §1, §2

[4] = tested on: tumor cell line panel (A549, KB, DU-145, ZR-751, KB-VIN); assay: Cytotoxic activity against the whole tumor cell line panel; type: cell-based, human; conditions: all cell lines of the panel; read-out: ED50 values against the tumor cell line panel
Text: as §1
Cell Growth Inhibition Assay. The sulforhodamine B assay was used according to the procedures developed and validated at NCI. The in vitro anticancer activities are expressed as ED50 values, which is the test compound concentration (μM) that reduced the cell number by 50% after 72-h of continuous treatment. The values were interpolated from dose-response data. Each test was performed in triplicate with variation less than 5%. The ED50 values determined in each of independent tests varied less than 10%. […]

[5] = tested on: ZR-751 (breast); assay: Cell growth inhibition assay (SRB), Example 2, ZR-751; type: cell-based, human; conditions: Table 6, 72-h continuous treatment
Text: as §1, §2

[6] = tested on: human A549 lung cancer cell line; assay: Cell growth inhibition assay (SRB), Example 2, A549; type: cell-based
Text: Cell Growth Inhibition Assay. The sulforhodamine B assay was used according to the procedures developed and validated at NCI. […] The values were interpolated from dose-response data.

[7] = tested on: human A549 lung cancer cell line; assay: Cell growth inhibition assay (SRB), Example 1; type: cell-based; conditions: Homo sapiens; table footnotes of Example 1; A549
Text: Results and discussion. […] Etoposide (VP-16) was used as the reference compound.
Cell Growth Inhibition Assay. The human A549 lung cancer cell line was used for the cytotoxicity screening of PBT derivatives using the cell-based sulforhodamine B (SRB) microtitre plate assay. […] Duration of compound exposure was 3 days.

[8] = Table 6, 72-h continuous treatment, hydrochloride, read-out: EC50 (μM) A549

| EC50 ([1]; Homo sapiens, KBVIN, 72 h) [µM] | EC50 [7] [µM] | EC50 ([2]; Homo sapiens, 72 h) [µM] | EC50 ([3]; Homo sapiens, DU-145, 72 h) [µM] | EC50 ([6]; Homo sapiens, A549, 72 h, Table 4, ED50, 72-h continuous treatment, NA = not active, read-out: A549 (μM), in vitro anticancer activity against A549 lung cancer cells) [µM] | EC50 ([6]; Homo sapiens, A549, 72 h, Table 6, 72-h continuous treatment, read-out: EC50 (μM) A549) [µM] | SMILES | EC50 ([1]; hydrochloride) [µM] | EC50 ([2]; hydrochloride) [µM] | EC50 ([3]; hydrochloride) [µM] | EC50 [4] [µM] | EC50 ([5]; hydrochloride) [µM] | EC50 [6, 8] [µM] | melting point [°C] | EC50 ([5]; Homo sapiens, ZR-75-1, 72 h) [µM] |
| --- | --- | --- | --- | --- | --- | --- | --- | --- | --- | --- | --- | --- | --- | --- |
|  |  |  |  |  |  | COc1ccc2c(CN3CCC(CO)CC3)cc3cc4c(cc3c2c1)OCO4 [Compound 24b, N-(2,3-Methylenedioxy-6-methoxy-phenanthr-9-ylmethyl)-L-4-piperidinemethanol hydrochloride] | 0.04 | 0.07 | 0.05 | < 0.1 | 0.04 | 0.07 |  |  |
|  |  |  |  |  |  | COc1ccc2c(CNCCCCCCO)cc3cc4c(cc3c2c1)OCO4.Cl [Compound 22b, N-(2,3-Methylenedioxy-6-methoxy-phenanthr-9-ylmethyl)-6-aminohexanol hydrochloride] | 0.16 | 0.23 | 0.07 |  | 0.08 | 0.13 | 187 to 188 |  |
|  |  |  |  |  |  | COc1ccc2c(CN3CCC(CCO)CC3)cc3cc4c(cc3c2c1)OCO4.Cl [Compound 32b, N-(2,3-Methylenedioxy-6-methoxy-phenanthr-9-ylmethyl)-4-piperidineethanol hydrochloride] | 0.2 | 0.2 | 0.1 |  | 0.02 | 0.09 | 153 to 155 |  |
| > 10 | 1.4 | 4.8 | 2.4 | 1.4 | 1.4 | COc1cc([C@@H]2c3cc4c(cc3[C@@H](O[C@@H]3O[C@@H]5CO[C@@H](C)O[C@H]5[C@H](O)[C@H]3O)[C@H]3COC(=O)[C@H]23)OCO4)cc(OC)c1O [Etoposide (VP-16), Etoposide, reference compound] |  |  |  |  |  |  |  | 3.1 |

— patent US8188089B2, “Tylophorine analogs as antitumor agents” (The University of North Carolina at Chapel Hill, priority 2006, dated 2012)
